Earlier results on 2 compounds are cited in patent publication US12281362B2, “Diagnostic tools and treatments for clear cell renal cell carcinoma” (University of Cincinnati, priority 2020, dated 2025).

The subject of one data set is localized RCC. As to conditions: adjuvant setting.
For data set [1] the following is noted: clinic.

Turning to `CNC(=O)c1cc(Oc2ccc(NC(=O)Nc3ccc(Cl)c(C(F)(F)F)c3)cc2)ccn1` [sorafenib], the survival result in the data set on localized RCC was “did not improve survival”.

As to `CCN(CC)CCNC(=O)c1c(C)[nH]c(/C=C2\C(=O)Nc3ccc(F)cc32)c1C` [Sunitinib], the adverse effects result in data set [1] is recorded as “serious adverse effects”.
